The subject of data set [1] is binding enzyme exhibiting Na-K-ATPase activity. Nature of the data set: enzymatic isotope displacement assay: displacement of H^3 ouabain from the binding enzyme. Set-up: species or system guinea pig. The conditions noted are these: 0, 2.5, 5, 10, 20 Ng (or ug of digitalis leaf) per 50 μl; FIG. 4. The method, then:
The serum extract and aqueous buffered mixtures having known concentrations of cardiac glycosides (hereinafter referred to as standard samples) are incubated with aqueous buffered mixtures containing the novel binding enzyme of the present invention in the presence of radioactive isotope cardiac glycoside, magnesium and sodium ions, ATP a buffering agent and optionally, but preferably, a heavy metal chelating agent. It is preferably that potassium be eliminated from the reagents to optimize the sensitivity of the assay. Ten microliters of the extract are sufficient for the incubation, although smaller and larger amounts may be employed. The binding enzyme is prepared by reacting a binding enzyme precursor or binding material (described below) with a high energy phosphate compound such as adenosine triphosphate (ATP), adenosine diphosphate (ADP), guanosine triphosphate (GTP), guanosine diphosphate (GDP) and the like. The reaction is preferably conducted in the presence of magnesium and/or sodium, preferably both. The reaction is conveniently carried out in the incubation or displacement step reaction mixture. About 4 to 100 micromoles of the high energy phosphate compound are reacted with each amount of the binding enzyme precursor prepared from one gram of animal tissue; although lesser or greater amounts of a high energy phosphate compound may be used. […]
In the above assay, the binding enzyme binds tritiated ouabain in the presence of Na and Mg. […] After centrifugation, the unbound H^3 ouabain in the supernatant fraction is counted by liquid scintillation and compared with known counts for standard concentrations of digoxin. An increase in supernatant radioactivity indicates uptake of digoxin or other cardiac glycoside at the expense of tritiated ouabain. […]
A solution of 250,000 Ng (nanograms) of digoxin per ml of methanol is gravimetrically prepared. […] 50ul of each supernatant is then counted by liquid scintillation. […]

Data set [2] can be described thus: serum cardiac glycoside levels in patients, measured with the present assay. The class given is in vivo, human. Conditions: 21 patients with arrhythmias on digoxin therapy; serum drawn at least 6 hours after last dose. Here is the method: Digoxin is extracted from patient serum or from plasma as follows: 5ml of serum or plasma is shaken for 30 seconds with 30ml of Chloroform in a 40ml glass-stoppered conical centrifuge tube, and centrifuged for 2 minutes at 1800 rpm (750 × g at tip). The milky top layer and fatty plug are removed with a teflon-tipped aspirator. The bottom chloroform layer is decanted into another 40ml centrifuge tube and evaporated to dryness in 3 to 5 minutes on a Buchler Evapomixer at 60°C. under vacuum. The digoxin thus extracted is rinsed down to the bottom of the tube with 1ml of ethyl ether and evaporated to dryness in a 50°C. water bath under a stream of filtered air.
. The sample is mixed on a Vari-whirl vortex mixer for 20 seconds at full speed and centrifuged for 3 minutes at 1800 rpm. The top toluene layer is removed with a narrow, drawn-out pasteur pipet, and discarded. Duplicate 50μl tris aliquots of the bottom tris layer are then assayed in the same manner as for the standards described in Example 3. No quench correction is required. Only raw 1 or 2 minute counts need be used and the counts of duplicate aliquots are averaged. The amount of digoxin found in each aliquot is obtained by comparison with that day's standard curve.
Serum digoxin levels were measured in 83 nontoxic patients on the medical wards of the Los Angeles County-University of Southern California Medical Center. […]

The conditions of data set [3]: cited from earlier work.
The subject of data set [4] is antibody. The conditions noted are these: cited from earlier work.
A short description of data set [5]: clinical. The class given is in vivo, human. The method, then:
A person was admitted to this center 3 hours after having ingested 100 tablets of 0.1mg of digitoxin. They had vomited once. Physical examination was unrevealing. […] The P-R interval was 0.24 seconds. Serum was obtained for assay, urine collection was begun, and vigorous gastric lavage was instituted.
Apparent serum digitoxin on admission was 51.0 Ng/ml, a value close to that of another patient whose atrial fibrillation was under satisfactory control on digitoxin 0.1mg/day. […] The results from both the serum and gastric material were in the hands of ward personnel within 3 hours.
On the basis of this assay information, especially the findings from the gastric material, it was decided by those caring for the patient that they might just have passed the stage where serum levels were highest. Since they were not severe, and since only mild AV block was present, it was felt that they might do well subsequently without further intervention. They were carefully watched, and in fact recovered without further therapy. […]. Four control urine specimens and six specimens at gastric contents from persons not receiving any digitalis gave negative results.

For data set [6] the following is noted: cited from earlier work. The source holds these as a separate data set.

Like-named read-outs stand apart in the source and are kept apart here.

Here are results for 3 compounds from US3959077A (priority 1972, dated 1976).

`C[C@H]1O[C@@H](O[C@H]2[C@@H](O)C[C@H](O[C@H]3[C@@H](O)C[C@H](O[C@H]4CC[C@@]5(C)[C@H](CC[C@@H]6[C@@H]5C[C@@H](O)[C@]5(C)[C@@H](C7=CC(=O)OC7)CC[C@]65O)C4)O[C@@H]3C)O[C@@H]2C)C[C@H](O)[C@@H]1O` [digoxin]: in data set [1], the “displaced H^3 ouabain from the enzyme (potency)” value (from here on “displaced H^3 ouabain”) is “approximately equal potency”. In addition, in data set [2], the “average serum level (1 S.D.)” value was found to be 3.10 ± 0.76 ng/mL. The “Risk of Arrhythmias” value is on record as “about 10%” in data set [3] (1.4 nanograms per ml of blood serum); “about 25%” in data set [3] (2 nanograms per ml of blood serum); “about 50%” in data set [3] (2.9 nanograms per ml of blood serum); “about 66%” in data set [3] (4 nanograms per ml of blood serum); “about 80%” in data set [3] (5 nanograms per ml of blood serum). The “specificity of the immunoassay for digoxin over digitoxin” value in data set [4] is 10 fold. Moreover, the “average toxic level by immunoassay” value in data set [4] (toxic patients, serum digoxin) was 3.3 ± 1.5 ng/mL.

On to `C[C@H]1O[C@@H](O[C@H]2[C@@H](O)C[C@H](O[C@H]3[C@@H](O)C[C@H](O[C@H]4CC[C@@]5(C)[C@H](CC[C@@H]6[C@@H]5CC[C@]5(C)[C@@H](C7=CC(=O)OC7)CC[C@]65O)C4)O[C@@H]3C)O[C@@H]2C)C[C@H](O)[C@@H]1O` [digitoxin], for which the “displaced H^3 ouabain” value in data set [1] is given as “approximately equal potency”. In addition, the “cardiac glycosides in gastric lavage material, equivalent of digitoxin” value in data set [5] (aliquot of 4 liters of lavage material) came to 1.2 µg/mL. The concentration at 3 h in data set [5] (human, in vivo, po, 3 hours after ingestion of 100 tablets of 0.1 mg, read-out: apparent serum digitoxin on admission) was found to be 51 ng/mL. Besides, the concentration at 24 h in data set [5] (human, in vivo, po, first subsequent day, read-out: subsequent daily serum digitoxin level) is 41 ng/mL; in data set [5] (human, in vivo, po, spot urine, first of the two days after admission, read-out: apparent digitoxin concentration in urine), 848 ng/mL. In addition, the concentration at 48 h in data set [5] (human, in vivo, po, second subsequent day, read-out: subsequent daily serum digitoxin level) was found to be 31.6 ng/mL; in data set [5] (human, in vivo, po, spot urine, second of the two days after admission, read-out: apparent digitoxin concentration in urine), 512 ng/mL. For the same compound, the concentration at 72 h in data set [5] (human, in vivo, po, third subsequent day, read-out: subsequent daily serum digitoxin level) was 24.4 ng/mL. Moreover, in data set [5] (of the 10 mg ingested), the “amount removed by lavage” value came out at 4.8 mg. For the same compound, the “reported therapeutic serum levels relative to those of digoxin” value in data set [6] is given as 10 to 20 times.

For `C[C@@H]1O[C@@H](O[C@H]2C[C@@H](O)[C@]3(CO)[C@H]4[C@H](O)C[C@]5(C)[C@@H](C6=CC(=O)OC6)CC[C@]5(O)[C@@H]4CC[C@]3(O)C2)[C@H](O)[C@H](O)[C@H]1O` [ouabain], the “displaced H^3 ouabain” value in data set [1] was “approximately equal potency”.
